Experimental data as given in patent publication US11097023B1, “Pre-filled syringe containing sugammadex” (Par Pharmaceutical, Inc., priority 2020, dated 2021).

How the values were obtained:
[1] = Thermal-forced degradation of sugammadex sodium (Example V); format: physicochemical; settings: solution in WFI, 60° C.
Experimental: To confirm that the impurities observed in Example III were at least in part a result of thermal degradation, sugammadex sodium as a solution in WFI was subjected to an elevated temperature of 60° C. for ten days. S-oxide diastereomer-1 impurity, s-oxide diastereomer-2 impurity, impurity at ˜1.12 RRT, mono chloro impurity, unknown impurities, and mono hydroxyl impurity concentrations were measured using HPLC technique as described in Example VII after the first, third, fifth, and tenth day.
(§1) For the following procedure, amber-colored glassware was used for all preparations. In addition, because sugammadex sodium is markedly hygroscopic when exposed to air at room temperature and when exposed to humidity, a relative humidity of less than 40% RH was maintained during weighing.
(§2) First, a buffer solution having a pH of 2.0 was prepared by weighing and transferring about 4.08 g of potassium dihydrogen phosphate (AR grade of equivalent) into 1000 mL water (HPLC Grade or Milli-Q) and mixing. The pH of the buffer solution was adjusted to 2.0±0.05 with concentrated ortho-phosphoric acid (HPLC grade or equivalent) and mixed well.
(§3) A mobile phase A was then prepared by transferring 950 mL of the buffer solution and 50 mL of methanol (HPLC grade or equivalent) into a bottle, mixing, and sonicating to degas. A mobile phase B was also prepared by transferring 300 mL of the buffer solution and 700 mL of acetonitrile (HPLC grade or equivalent) into a bottle, mixing, and sonicating to degas.
(§4) A standard solution (50 ppm) was also prepared by weighing and transferring 27.2 mg of sugammadex sodium standard into a 50 mL amber color volumetric flask. About 30 mL of 100% water (HPLC Grade or Milli-Q) was added, and the mixture was sonicated to dissolve. The solution was made up to the mark with 100% water (HPLC Grade or Milli-Q) and mixed well. Then, 5.0 mL of this solution was transferred to 50 mL amber color volumetric flasks, made up to the mark with 100% water (HPLC Grade or Milli-Q), and mixed well.
(§5) To prepare a sensitivity solution (5 ppm), 5.0 mL of the standard solution was transferred to a 50 mL amber volumetric flask, made-up to the mark with 100% water (HPLC Grade or Milli-Q), and mixed well.
(§6) A placebo solution was also prepared by weighing and transferring 1.0 g of placebo into a 20 mL amber color volumetric flask, diluting to 20 mL with 100% water (HPLC Grade or Milli-Q), and mixing well.
(§7) A sample solution (5000 ppm) was also prepared by weighing and transferring 1.0 g of the sample to be analyzed into a 20 mL amber color volumetric flask, diluting to 20 mL with 100% water (HPLC Grade or Milli-Q), and mixing well.
(§8) When performing the chromatographic procedure, for initial samples, two samples were prepared in duplicate. For stability samples, a single sample was prepared. In addition, any peak due to blank and/or placebo was disregarded, any peak below LOQ level was disregarded, and any peak corresponding to mono chloro impurity was disregarded.
(§9) The percent impurity was then calculated as follows:
(§10) [formula] where: A(Spl)=Peak response of impurity obtained from sample solution A(Std)=Average peak response of sugammadex from the standard solution Wt(Std)=Weight (mg) of sugammadex working standard. Wt(Spl)=Weight (g) of Sample LC=Label Claim (100 mg/ml sugammadex) D=Density of sample (mg/ml) P=Potency of the standard (Anhydrous basis+Solvent free) WC=Water content of sugammadex working standard. 2002.12=Molecular weight of sugammadex 2178.01=Molecular weight of sugammadex sodium
(§11) Total impurities were calculated by adding all known impurities (excluding mono hydroxy impurity) and all unknown impurities.

[2] = Oxidative-forced degradation of sugammadex sodium (Example VI); format: physicochemical
Experimental: To confirm that impurities observed in sugammadex sodium-containing solutions could be at least in part a result of oxidative degradation, sugammadex sodium as a solution in […] was subjected to an atmosphere of either 0.01% H2O2 for one hour or to an atmosphere of 0.002% H2O2 for five hours. S-oxide diastereomer-1 impurity, s-oxide diastereomer-2 impurity, impurity at ˜1.12 RRT, mono chloro impurity, unknown impurities, and mono hydroxyl impurity concentrations were measured using HPLC technique as described in Example VII after the first hour of 0.01% H2O2 exposure and after the first, fourth, and fifth hour of 0.002% H2O2 exposure.
as §1, §2, §3, §4, §5, §6, §7, §8, §9, §10, §11

## O=C([O-])CCSC[C@H]1O[C@@H]2O[C@H]3[C@H](O)[C@@H](O)[C@@H](O[C@H]4[C@H](O)[C@@H](O)[C@@H](O[C@H]5[C@H](O)[C@@H](O)[C@@H](O[C@H]6[C@H](O)[C@@H](O)[C@@H](O[C@H]7[C@H](O)[C@@H](O)[C@@H](O[C@H]8[C@H](O)[C@@H](O)[C@@H](O[C@H]9[C@H](O)C(O)[C@@H](O[C@H]1[C@H](O)[C@H]2O)O[C@@H]9CSCCC(=O)[O-])O[C@@H]8CSCCC(=O)[O-])O[C@@H]7CSCCC(=O)[O-])O[C@@H]6CSCCC(=O)[O-])O[C@@H]5CSCCC(=O)[O-])O[C@@H]4CSCCC(=O)[O-])O[C@@H]3CSCCC(=O)[O-].[Na+].[Na+].[Na+].[Na+].[Na+].[Na+].[Na+].[Na+] (stereo partly drawn) [sugammadex sodium]
[1]; after fifth day
  (Excluding Monohydroxy impurity): 0.03 % impurity
  Highest Unknown impurity: 7.18 % impurity
  Impurity at ~1.12 RRT: 0.10 % impurity
  Mono chloro impurity: 0.03 % impurity
  Other total impurities: 0.80 % impurity
  S-oxide diastereomer-1 impurity: 0.16 % impurity
  S-oxide diastereomer-2 impurity: 0.21 % impurity
  Total impurities: 8.48 % impurity
[1]; after first day
  (Excluding Monohydroxy impurity): 0.03 % impurity
  Highest Unknown impurity: 4.44 % impurity
  Impurity at ~1.12 RRT: 0.10 % impurity
  Mono chloro impurity: 0.04 % impurity
  Other total impurities: 0.71 % impurity
  S-oxide diastereomer-1 impurity: 0.12 % impurity
  S-oxide diastereomer-2 impurity: 0.17 % impurity
  Total impurities: 5.58 % impurity
[1]; after tenth day
  (Excluding Monohydroxy impurity): 0.02 % impurity
  Highest Unknown impurity: 15.04 % impurity
  Impurity at ~1.12 RRT: 0.08 % impurity
  Mono chloro impurity: 0.03 % impurity
  Other total impurities: 0.85 % impurity
  S-oxide diastereomer-1 impurity: 0.48 % impurity
  S-oxide diastereomer-2 impurity: 0.42 % impurity
  Total impurities: 16.91 % impurity
[1]; after third day
  (Excluding Monohydroxy impurity): 0.03 % impurity
  Highest Unknown impurity: 5.34 % impurity
  Impurity at ~1.12 RRT: 0.10 % impurity
  Mono chloro impurity: 0.03 % impurity
  Other total impurities: 0.79 % impurity
  S-oxide diastereomer-1 impurity: 0.14 % impurity
  S-oxide diastereomer-2 impurity: 0.20 % impurity
  Total impurities: 6.59 % impurity
[1]; ten days
  Impurities generated via thermal degradation: at least s-oxide diastereomer-1 impurity, s-oxide diastereomer-2 impurity, and unknown impurities are generated via thermal degradation
[2]; 0.002% H2O2, after fifth hour
  (Excluding Monohydroxy impurity): 0.03 % impurity
  Highest Unknown impurity: 0.07 % impurity
  Impurity at ~1.12 RRT: 0.09 % impurity
  Mono chloro impurity: 0.03 % impurity
  Other total impurities: 0.82 % impurity
  S-oxide diastereomer-1 impurity: 4.11 % impurity
  S-oxide diastereomer-2 impurity: 5.02 % impurity
  Total impurities: 10.14 % impurity
[2]; 0.002% H2O2, after first hour
  (Excluding Monohydroxy impurity): 0.03 % impurity
  Highest Unknown impurity: 0.07 % impurity
  Impurity at ~1.12 RRT: 0.10 % impurity
  Mono chloro impurity: 0.04 % impurity
  Other total impurities: 0.31 % impurity
  S-oxide diastereomer-1 impurity: 1.20 % impurity
  S-oxide diastereomer-2 impurity: 1.47 % impurity
  Total impurities: 3.20 % impurity
[2]; 0.002% H2O2, after fourth hour
  (Excluding Monohydroxy impurity): 0.02 % impurity
  Highest Unknown impurity: 0.07 % impurity
  Impurity at ~1.12 RRT: 0.09 % impurity
  Mono chloro impurity: 0.03 % impurity
  Other total impurities: 0.65 % impurity
  S-oxide diastereomer-1 impurity: 3.42 % impurity
  S-oxide diastereomer-2 impurity: 4.18 % impurity
  Total impurities: 8.45 % impurity
[2]; 0.01% H2O2, after first hour
  (Excluding Monohydroxy impurity): 0.02 % impurity
  Highest Unknown impurity: 3.07 % impurity
  Impurity at ~1.12 RRT: 0.08 % impurity
  Mono chloro impurity: 0.03 % impurity
  Other total impurities: 3.66 % impurity
  S-oxide diastereomer-1 impurity: 10.64 % impurity
  S-oxide diastereomer-2 impurity: 12.89 % impurity
  Total impurities: 30.36 % impurity
[2]; 0.01% H2O2 one hour or 0.002% H2O2 five hours
  Impurities generated via oxidation: at least s-oxide diastereomer-1 impurity, s-oxide diastereomer-2 impurity, and unknown impurities are generated via oxidation
